In brackets after ≈: the same amount, converted by molar mass.
Columns and labels:
[1] = Dilution in Cation Adjusted Mueller Hinton Broth; format: physicochemical
Method: For each of the five test compounds, a […] stock solution was created by dissolving 2.56 grams of compound in 10 ml of dimethyl sulfoxide (DMSO). The resulting solution was then aliquoted into 500 μL volumes and stored at −80° C. A […] stock solution of ampicillin was also created by dissolving 0.303 grams of ampicillin (Sigma A-0166) in 10 ml of DMSO. This solution was aliquoted and stored in the same manner as the five test compounds. When these compounds were required, a 256 μg/ml working solution was created by diluting 100 μl of stock solution (25.6 mg/ml) in 9.9 ml of Cation-Adjusted Mueller Hinton Broth (CAMHB)
LP4525 had the most consistent MIC values for all isolates, and this is evidenced by the small MIC range. LP4525 also has a lower MIC90 value compared to all compounds.

[2] = test system: Staphylococcus isolates (methicillin-sensitive and methicillin-resistant); experiment: Minimum inhibitory concentration assay (Example 1); format: cell-based; conditions: for MIC50 and MIC90 values compared with ampicillin: methicillin-resistant isolates
Method: Forty-two isolates of Staphylococcus of varying species and strain type were collected from isolate collections. Biochemical testing including coagulase, latex agglutination testing for protein A, Vogues-Proskauer tests and resistance to polymyxin B were used to identify the species of Staphylococcus. All isolates were also screened for resistance to various antimicrobials commonly used for the treatment of infections. This was performed using the disk diffusion method and resistance standards as outlined by the CLSI. The following antimicrobials were used: amoxicillin-clavulanic acid (30 μg), cephalothin (30 μg), clindamycin (2 μg), enrofloxacin (5 μg), erythromycin (15 μg), gentamicin (10 μg), imipenem (10 μg), oxacillin (1 μg), penicillin G (10 units), tetracycline (30 μg), 1:19 trimethoprim-sulfamethoxazole (25 μg) and vancomycin (30 μg).
Minimum inhibitory concentration tests were performed according to CLSI Standards (CLSI 2012). 90 μL of one of the test compound solutions, or ampicillin, was added to the end column of a 96 well plate that contained 90 μL of CAMHB in each well. The solutions were then serially diluted across the row, leaving 2 columns for positive and negative controls (FIG. 2). A bacterial suspension was prepared by adding fresh colonies obtained from an overnight culture on Sheep Blood Agar (SBA) to a 9.1 g/L saline solution. This suspension was adjusted to a concentration of between 4×10^8 and 5×10^8 CFU/mL. Concentration of the suspension was determined by measuring optical density (OD) using a spectrophotometer at a wavelength of 600 nm where the correct concentration was determined to have an optical density of between 1.00 and 1.20. 1 mL of this suspension was added to 9 mL of saline before being added to all wells, excluding the negative control wells, in 10 μL volumes giving a final concentration of between 4×10^5 and 5×10^5 CFU/mL in each well. The tests were then incubated for 24 hours at 37° C. and then assessed both visually and using OD readings from a microplate reader at a wavelength of 600 nm. These tests were performed in duplicate but repeated if discrepancies were observed.
The minimum inhibitory concentration (MIC) was determined to be the lowest concentration of antibiotic that prevented growth of bacteria both visually and using OD readings. Direct statistical comparisons between the test compounds and ampicillin could not be performed in light of confidential information restrictions, such as restrictions on disclosure of information relating to the compound structure, such as molecular weight. Instead, MIC values were collated and used to determine the lowest concentration of each compound that was effective against 50% and 90% of isolates, referred to as the MIC50 and MIC90 respectively. These values as well as the range of MIC values were then used for direct comparisons between test compounds and for general comparisons with ampicillin.

bovine mastitis isolates = experiment: Minimum inhibitory concentration assay (Example 3); format: cell-based
From the text: Fifty-one dairy bovine mastitis isolates, encompassing a variety of bacterial species, were isolated from milk samples collected from dairy farms in rural South Australia by the University of Adelaide Ambulatory Clinic. Cellular morphology observed from Gram stains and catalase testing was used to differentiate Staphylococcus, Streptococcus and Corynebacterium species from Gram-negative species. Further biochemical testing including coagulase, Lancefield grouping, esculin hydrolysis and CAMP tests were used to identify the isolates to species level. Where biochemical test results were not definitive in identifying species, amplification and sequencing of the 16S ribosomal RNA gene was used to confirm the identity of the isolates.
Minimum inhibitory concentration tests were performed in the manner outlined by the CLSI (CLSI 2012). Test compounds were dispensed into a 96-well microtitre tray containing 90 μl of CAMHB in 90 μl volumes and serial diluted to obtain a concentration gradient ranging from 128 μg/ml to 0.25 μg/ml (see FIG. 24). For Streptococcus species, CAMHB was replaced with a CAMHB supplement with 4% lysed-sheep blood (4% LSB:CAMHB). 4% LSB:CAMHB was prepared by mixing 5 ml sheep blood to 5 ml milliQ water, and repeated freezing at −20° C. and thawing, followed by centrifuged for 20 min at 7000 rpm. 7 ml of the supernatant was removed and added to 93 mL of CAMB.
Bacterial suspensions were prepared by emulsifying fresh colonies obtained from an overnight culture on Sheep Blood Agar (SBA) in 4 mls of 9.1 g/l physiological saline to an optical density read at 600 nm (OD600nm) between 1.00 and 1.20. Standardised bacterial suspensions were diluted 1:10 in physiological saline and dispensed into all wells, excluding the negative control wells, in 10 μL volumes giving a final concentration of between 4×10^5 and 5×10^5 CFU/mL in each well. 96-well microtitre trays were incubated for 24 hours at 37° C. in 5% CO2 and then assessed both visually and using OD readings from a microplate reader at a wavelength of 600 nm. These tests were performed in duplicate and repeated if discrepancies in MIC values were observed between replicates.
The minimum inhibitory concentration (MIC) was determined to be the lowest concentration of antibiotic that prevented growth of bacteria both visually and using OD readings. MIC values were collated and used to determine the lowest concentration of each compound effective against 50% and 90% of isolates, known as the MIC50 and MIC90 respectively. These values as well as the range of MIC values were then used for direct comparisons between test compounds and for general comparisons with ampicillin.

[3] = dogs; cited from earlier work
[4] = test system: Staphylococcus isolates (methicillin-sensitive and methicillin-resistant); experiment: Minimum bactericidal concentration determination (Example 1); format: cell-based; conditions: for bactericidal activity (MBC testing): methicillin-sensitive and methicillin-resistant strains
Method: Following determination of the MIC using the 96 well MIC plate, a variation of the drop plate method was used to determine minimum bactericidal concentration (MBC) for each of the test compounds. These were analysed using samples taken from the MIC plate following incubation. For each compound, a 10 μL drop of each concentration equal to or higher than the MIC was pipetted onto Sheep Blood Agar in a clockwise manner (FIG. 3). Each concentration was pipetted in duplicate with duplicates being pipetted on an inner ring of drops. The plates were incubated at 37° C. overnight and assessed the following day for growth. The MBC was defined as the concentration at which 99.9% of colonies were eradicated, which was visually assessed by a lack of growth on the agar where the drop was placed. […] The MBC values for 50% and 90% of the isolates (MBC50 and MBC90) were calculated and assessed along with the MBC range in order to select compounds for further study.

[5] = humans; cited from earlier work
[6] = accidental inhalation and swallowing of about 1 mg/kg, human; cited from earlier work
MRSA 9 [7] = experiment: Microdilution time-kill assay; format: cell-based, Staphylococcus aureus; conditions: 48 hours
Method: Following assessment of MIC and MBC results, two compounds were chosen for analysis using microdilution time-kill assays, LP 1369 and LP 6315 and these were compared to ampicillin. Time-kill assays were performed according to the M26-A guidelines of the CLSI, with modifications. The test compounds and ampicillin were serial diluted in CAMHB across the rows of a 96 well plate and a bacterial suspension was prepared and added in the same manner as the MIC testing. […] The time points assessed were 0, 1, 2, 4, 8, 12, 24 and 48 hours after the addition of the bacterial suspension to the wells. Each test compound was tested in triplicate while ampicillin was tested in duplicate and this test was independently repeated. The bacterial strains used for the microdilution assays were chosen based on bactericidal activity evident during MBC testing. One strain from each of the categories of Staphylococcus in the isolate collection (methicillin-sensitive, methicillin resistant and coagulase negative) were selected as well as the ATCC reference strain for comparison. These strains were strains MSS 1, MSS 11, MRSA 9 and the ATCC 49775 reference strain.

MRSA 9 [8] = experiment: Macrodilution time-kill assay; format: cell-based, Staphylococcus aureus; conditions: 24 hours
Method: (§1) Due to the detection limit of the OD measurements, the time-kill assays were also performed in macrodilution. In 15 mL tubes, 9 mL volumes of the test compounds in CAMHB were prepared at one, four and eight times the MIC concentration and 9 mL volumes of ampicillin were prepared in CAMHB at one and four times the MIC. 1 mL of a 4 to 5×10^6 bacterial suspension (as prepared for MIC testing) was added to each of the tubes as well as a growth control tube containing only 9 mL of CAMHB. These tubes were incubated at 37° C. in an orbital shaker rotating at 100 rpm for 24 hours. At 0, 1, 4, 8, 12 and 24 hours after addition of the bacteria, 100 μL samples were removed from each tube and serial diluted in 9.1 g/L saline solution. The dilutions were then plated in duplicate onto plate count agar and incubated for 24 hours at 37° C. After incubation, viable counts were obtained from the number of colonies visible on the agar and these were used to calculate the number of CFU/mL at each time point. For the macrodilution time-kill analysis, only the ATCC 49775 reference strain and MRSA 9 were assessed in order to further investigate the antibacterial activity against methicillin-resistant strains. These macrodilution time-kill assays were independently repeated and bactericidal activity was defined as a ≥3 log decrease in the number of CFU/mL.

[9] = test system: ATCC 49775 reference strain; experiment: Macrodilution time-kill assay; format: cell-based, Staphylococcus; conditions: 24 hours
Method: as §1

[10] = 51 Australian bovine mastitis isolates

CC[C@@]1([C@@H]2O[C@@H]([C@H]3O[C@@](O)(CO)[C@H](C)C[C@@H]3C)C[C@@H]2C)CC[C@H]([C@]2(C)CC[C@]3(C[C@H](O)[C@@H](C)[C@@H]([C@@H](C)[C@@H](OC)[C@H](C)C(=O)O)O3)O2)O1 [LP 9666, Monensin]
turbidity or precipitate upon dilution [1]: large amount of precipitate | MIC90 value and MIC range (in words) ([2]; all strains): high MIC90 value and broad MIC range | MIC50 and MIC90 values compared with ampicillin [2]: considerably lower than ampicillin | antibacterial activity against the bovine mastitis isolates (bovine mastitis isolates): observed | MIC90 (bovine mastitis isolates; [10]): 128 µg/mL (≈ 191 µM) | MIC90 values for each of the groups of mastitis pathogens (in words) (bovine mastitis isolates; compared with the other compounds): significantly higher

CC[C@@H](C(=O)[C@@H](C)[C@@H](O)[C@H](C)[C@@H]1O[C@@H]([C@@H](CC)C(=O)O)CC[C@@H]1C)[C@H]1O[C@]2(C=C[C@@H](O)[C@]3(CC[C@@](C)([C@H]4CC[C@](O)(CC)[C@H](C)O4)O3)O2)[C@H](C)C[C@@H]1C [LP 1088, Salinomycin]
daily intake that leads to neurotoxic effects (myelin loss, axonal degeneration) [3]: more than 500 μg/kg | strains against which bactericidal activity was exhibited more consistently [4]: methicillin-sensitive strains | bactericidal activity (MBC testing) [4]: some bactericidal activity in lower concentrations | acceptable daily intake (ADI) [5]: 5 µg/kg | toxicity after accidental exposure [6]: severe acute and chronic salinomycin toxicity | MIC50 and MIC90 values compared with ampicillin [2]: considerably lower than ampicillin | MIC values (in words) (bovine mastitis isolates): low MIC values | antibacterial activity against the bovine mastitis isolates (bovine mastitis isolates): observed | MIC90 (bovine mastitis isolates; [10]): 2 µg/mL (≈ 2.66 µM)

Narasin [LP 4525]
strains against which bactericidal activity was exhibited more consistently [4]: methicillin-sensitive strains | bactericidal activity (MBC testing) [4]: some bactericidal activity in lower concentrations | MIC50 and MIC90 values compared with ampicillin [2]: considerably lower than ampicillin | MIC values (in words) (bovine mastitis isolates): low MIC values | antibacterial activity against the bovine mastitis isolates (bovine mastitis isolates): observed | MIC50 (bovine mastitis isolates; [10]): 0.25 µg/mL | MIC90 (bovine mastitis isolates; [10]): 1 µg/mL

CC1(C)S[C@@H]2[C@H](NC(=O)[C@H](N)c3ccccc3)C(=O)N2[C@H]1C(=O)O [ampicillin]
resulting growth after 48 hours (MRSA 9 [7]): comparable to the growth control | bactericidal or bacteriostatic (>=3 log decrease in CFU/mL = bactericidal) (MRSA 9 [8]; LP 6315: most concentrations): bactericidal | decrease in the number of viable bacteria (MRSA 9 [8]; all concentrations tested): > 3 log10 | bactericidal or bacteriostatic (>=3 log decrease in CFU/mL = bactericidal) ([9]; LP 6315: most concentrations): bactericidal | decrease in the number of viable bacteria ([9]; all concentrations tested): > 3 log10

— patent US11491105B2, “Methods of treating microbial infections, including mastitis” (priority 2013, dated 2022)
